Assay results as given in paper PMC8956739, “A synthetic lipopeptide targeting top-priority multidrug-resistant Gram-negative pathogens” (Nature Communications, 2022).
In brackets after ≈: the same amount, converted by molar mass. Like-named read-outs stand apart in the source and are kept apart here. Residues, ends and D or L forms follow the SMILES beside them.

Experiments:
A. baumannii FADDI-AB051 = assay type: cell-based, Acinetobacter baumannii
How it was run: (§1)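 MICs were determined by broth microdilution in cation-adjusted Mueller–Hinton broth (CaMHB), with clinical isolates tested alongside ATCC strains.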

A. baumannii FADDI-AB144 = assay type: cell-based, Acinetobacter baumannii
How it was run: as §1

A. baumannii FADDI-AB161 = assay type: cell-based, Acinetobacter baumannii
How it was run: as §1

A. baumannii FADDI-AB156 = assay: MIC, polymyxin-resistant isolate; assay type: cell-based, Acinetobacter baumannii; conditions: carbapenem-resistant
Description: MICs were determined in cation-adjusted Mueller–Hinton broth (CaMHB) by the broth micro-dilution method against ATCC strains and clinical isolates. MICs in the presence of Survanta® were determined as described above against P. aeruginosa ATCC 27853. In the 100 μL of fresh CaMHB containing polymyxins, 10% Survanta® (v/v, 2.5 mg/mL phospholipids) was added. MICs in the presence and absence of Survanta® were compared to determine the effect of binding to lung surfactant on the antibacterial activity of polymyxins.

[1] = Plasma pharmacokinetics in mice; assay type: in vivo, mouse
Description: The plasma pharmacokinetic profiles of F365 and polymyxin B were assessed in Swiss mice (female, 7-week-old, 22–28 g) after a single intraperitoneal dose (5 mg/kg, n = 3). Blood samples were collected at various time points over 24 h post dosing for analysis. The plasma pharmacokinetic profiles of F365 (n = 5) and polymyxin B (1 mg/kg, n = 11) in Sprague-Dawley rats (male, 10-week-old, 280 to 330 g) were assessed after intravenous administration (1 min) of F365 and polymyxin B via an indwelling jugular vein cannula. Blood samples (~0.3 mL) were collected via an indwelling carotid artery cannula at various time points over 24 h post dosing. Urine samples were collected at 4 °C using a metabolic cage during the period between 0 and 24 h post dosing. Concentrations of F365 and polymyxin B in plasma and urine samples were determined using LC-MS/MS and pharmacokinetic analysis was conducted using WinNonlin (Pharsight Corp., Mountain View, CA). The ELF pharmacokinetic profiles of F365 and polymyxin B was determined in neutropenic Swiss mice (female, 7-week-old, 22–28 g) after subcutaneous injection (40 mg/kg, n = 3). Bronchoalveolar lavage (BAL) samples were collected at various time points over 24 h post dosing from the cannulated trachea using Milli-Q water as BAL washing media. The average volume of ELF in mice was calculated by the ratio of urea concentrations in plasma and BAL samples. Concentrations of F365 and polymyxin B in plasma and BAL were analyzed by LC-MS/MS. Pharmacokinetic parameters were calculated using a non-compartment model with WinNonlin. For mouse, rat, and human plasma protein binding of F365 and polymyxin B, pooled plasma samples (n = 3) from each species were spiked with F365 or polymyxin B. The spiked plasma samples were subjected to ultrafiltration and the corresponding filtrates were analyzed by LC-MS/MS to determine the concentration of F365 and polymyxin B and the protein binding in each species.

P. aeruginosa PAM2035 = assay type: cell-based, Pseudomonas aeruginosa; conditions: nitrocefin hydrolysis, without Mg2+
Description: (§2) Bacterial strains were seeded in 50 mL of Luria-Bertani (LB) broth at OD600 0.05 and grown at 37 °C for 3-4 h until an OD600 of 0.6–0.8 was achieved. Bacterial cells were washed twice with 25 mL of buffer (50 mM sodium phosphate, 0.5% glucose, pH 7, with or without 1 mM Mg^2+), resuspended in 10 mL of the buffer, and then adjusted to an OD600 of 0.4. […] Bacterial suspension (50 μL, OD600 0.4) in buffer was added to the lipopeptide solutions and the rate of substrate hydrolysis was measured at 490 nm.
Activity of F365 and polymyxin B in the outer membrane permeabilization assay.
The outer and inner membranes of gram-negative bacteria are the sites of interaction and action of polymyxin antibiotics, respectively. These polycationic compounds bind to phosphate residues of lipid A and displace the magnesium and calcium ions that cross-bridge adjacent lipid A molecules thereby stabilizing the outer membrane. […]
as the main mechanism of action by polymyxin B and colistin. The outer membrane-permeabilizing effect of F365 at a wide range of concentrations was assessed by examining the rates of hydrolysis of a chromogenic β-lactam, nitrocefin, by intact cells of Pseudomonas aeruginosa. […]

[2] = test system: P. aeruginosa PAM1723 (overexpresses MexAB-OprM); assay type: cell-based, Pseudomonas aeruginosa; conditions: Leu-Nap hydrolysis
Description: as §2
Activity of F365 and polymyxin B in the efflux inhibition assay.
One of the consequences of disruption/permeabilization of the cytoplasmic membrane by polymyxins is the dissipation of the proton gradient across the cytoplasmic membrane. […]
these compounds are expected to inhibit proton-dependent transport activity across the cytoplasmic membrane including efflux. Efflux activity and its inhibition by F365 was assessed by examining the rates of hydrolysis of a fluorogenic substrate of efflux pumps, Leu-Nap, by intact cells of P. aeruginosa. For these experiments we used two strains of P. aeruginosa, PAM1723 and PAM1626. PAM1723 overexpresses the efflux pump MexAB-OprM and PAM1626 lacks this pump as well as several other pumps that extrude Leu-Nap. […] The rate of production of β-naphthylamine (recorded as an increase in fluorescence) is limited by the rate of entry of Leu-Nap into the cells. […]

Q: Which results are given for `CC[C@@H]1NC(=O)[C@@H](CC(C)C)NC(=O)[C@H](CCN)NC(=O)[C@@H](NC(=O)[C@H](CN)NC(=O)[C@@H](NC(=O)[C@H](CCN)NC(=O)c2ccc(Cl)cc2Cl)[C@@H](C)O)CCNC(=O)[C@H]([C@@H](C)O)NC(=O)[C@H](CCN)NC(=O)[C@H](CCN)NC1=O` [Lipopeptide F365] (HELM PEPTIDE1{[O=C(c1ccc(Cl)cc1Cl)[*:2]].[Dab].T.[NC[C@H](N[*:1])C(=O)[*:2]].[Dab].[Dab].[dL].[Abu].[Dab].[Dab].T}$PEPTIDE1,PEPTIDE1,5:R3-11:R2$$$V2.0)?
A: MIC A. baumannii FADDI-AB051 (A. baumannii FADDI-AB051; FADDI-AB051): 0.5 µg/mL (≈ 0.431 µM); MIC A. baumannii FADDI-AB144 (A. baumannii FADDI-AB144; FADDI-AB144): 32 µg/mL (≈ 27.6 µM); MIC A. baumannii FADDI-AB161 (A. baumannii FADDI-AB161; FADDI-AB161): 1 µg/mL (≈ 0.862 µM); MIC A. baumannii FADDI-AB156 (A. baumannii FADDI-AB156): 4 µg/mL (≈ 3.45 µM); Plasma concentration, single mouse ([1]; 5 mg/kg IP, 0.28 h): 6.79; AUC(0-inf) ([1]; mouse, in vivo, ip, 5 mg/kg): 7920 ng·h/mL; half-life ([1]; mouse, in vivo, ip, 5 mg/kg): 18 min; IC50 for membrane permeabilization (P. aeruginosa PAM2035): 0.73 ± 0.07 µg/mL; IC50, inhibition of efflux activity [2]: 4.2 ± 1.5 µg/mL

Q: Which “MIC A. baumannii FADDI-AB051” value (A. baumannii FADDI-AB051; carbapenem-resistant) does the source give for Polymyxin B [reference compound] here?
A: The value was 0.5 µg/mL.

Q: What about the “MIC A. baumannii FADDI-AB144” value (A. baumannii FADDI-AB144; polymyxin-resistant) of the same compound?
A: Its value is 16 µg/mL.

Q: What about the “MIC A. baumannii FADDI-AB161” value (A. baumannii FADDI-AB161; polymyxin-resistant) of the same compound?
A: The value was 8 µg/mL.

Q: And the “MIC A. baumannii FADDI-AB156” value (A. baumannii FADDI-AB156)?
A: Its value is 8 µg/mL.

Q: And the half-life ([1]; mouse, in vivo, ip, 5 mg/kg)?
A: The half-life was 84 min.

Q: And the “IC50 for membrane permeabilization” value (P. aeruginosa PAM2035)?
A: The value was 1.15 ± 0.22 µg/mL.

Q: What about the “IC50, inhibition of efflux activity” value [2] of the same compound?
A: The value was 7.6 ± 1.4 µg/mL.
